Biological target: E. coli SQR (pFAS, SdhABCD^+) (Escherichia coli, UniProt P0AC41)
Test: PES-DCIP assay and Clark O2 electrode, IMVs
Format: biochemical
Conditions: pH 7.5 (50 mM MOPS)

Sequence of E. coli SQR (pFAS, SdhABCD^+) (P0AC41 whole entry): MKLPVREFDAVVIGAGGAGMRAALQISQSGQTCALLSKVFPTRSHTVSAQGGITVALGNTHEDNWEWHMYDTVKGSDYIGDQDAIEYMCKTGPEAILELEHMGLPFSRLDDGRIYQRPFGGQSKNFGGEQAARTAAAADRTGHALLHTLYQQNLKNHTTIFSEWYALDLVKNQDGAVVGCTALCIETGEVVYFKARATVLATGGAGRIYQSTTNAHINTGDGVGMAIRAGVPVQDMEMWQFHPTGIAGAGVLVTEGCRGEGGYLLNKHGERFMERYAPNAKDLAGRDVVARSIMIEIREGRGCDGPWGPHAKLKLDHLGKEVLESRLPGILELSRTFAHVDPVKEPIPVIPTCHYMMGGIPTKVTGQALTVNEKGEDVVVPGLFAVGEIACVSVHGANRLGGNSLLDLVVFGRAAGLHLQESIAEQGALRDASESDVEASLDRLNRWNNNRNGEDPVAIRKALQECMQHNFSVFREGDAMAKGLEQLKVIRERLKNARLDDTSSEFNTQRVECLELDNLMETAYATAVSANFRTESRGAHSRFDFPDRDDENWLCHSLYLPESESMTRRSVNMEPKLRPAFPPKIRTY
Sequence of E. coli SQR (pFAS, SdhABCD^+) (P07014 whole entry partner): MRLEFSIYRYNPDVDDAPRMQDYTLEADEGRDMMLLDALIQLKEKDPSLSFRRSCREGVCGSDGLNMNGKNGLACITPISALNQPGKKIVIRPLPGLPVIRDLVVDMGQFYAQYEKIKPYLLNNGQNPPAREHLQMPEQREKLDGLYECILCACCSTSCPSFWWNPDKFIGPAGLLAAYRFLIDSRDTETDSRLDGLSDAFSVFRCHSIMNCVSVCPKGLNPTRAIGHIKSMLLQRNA
Sequence of E. coli SQR (pFAS, SdhABCD^+) (P69054 whole entry partner): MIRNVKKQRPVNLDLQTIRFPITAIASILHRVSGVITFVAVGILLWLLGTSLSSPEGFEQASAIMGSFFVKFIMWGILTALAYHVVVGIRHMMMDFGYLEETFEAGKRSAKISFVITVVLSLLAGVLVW
Sequence of E. coli SQR (pFAS, SdhABCD^+) (P0AC44 whole entry partner): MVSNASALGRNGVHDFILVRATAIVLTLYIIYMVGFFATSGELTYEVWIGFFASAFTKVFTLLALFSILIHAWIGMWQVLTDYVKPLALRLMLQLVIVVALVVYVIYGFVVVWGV

Structure (SMILES): O=C(O)CCC(=O)O [succinate]
- PES-DCIP assay and Clark O2 electrode, IMVs: E. coli strains overexpressing either the SQR operon (pFAS, SdhABCD^+)
